Results: patent US8110596B2, “Triprenyl phenol compound, process for production of triprenyl phenol compound, and thrombolysis enhancer” (Tokyo University of Agriculture and Technology TLO Co., Ltd., priority 2006, dated 2012)

Tests used:
plasminogen [1] = molecular target: T1, plasminogen (Homo sapiens, UniProt P00747); assay: Measurement of plasminogen activation by urokinase catalysis, VLK-pNA hydrolysis (Example 5); type: biochemical; conditions: 50 μM, 100 μM and 200 μM, 37° C., 60 minutes
T1 sequence (P00747 20-810 limits assumed, species assumed): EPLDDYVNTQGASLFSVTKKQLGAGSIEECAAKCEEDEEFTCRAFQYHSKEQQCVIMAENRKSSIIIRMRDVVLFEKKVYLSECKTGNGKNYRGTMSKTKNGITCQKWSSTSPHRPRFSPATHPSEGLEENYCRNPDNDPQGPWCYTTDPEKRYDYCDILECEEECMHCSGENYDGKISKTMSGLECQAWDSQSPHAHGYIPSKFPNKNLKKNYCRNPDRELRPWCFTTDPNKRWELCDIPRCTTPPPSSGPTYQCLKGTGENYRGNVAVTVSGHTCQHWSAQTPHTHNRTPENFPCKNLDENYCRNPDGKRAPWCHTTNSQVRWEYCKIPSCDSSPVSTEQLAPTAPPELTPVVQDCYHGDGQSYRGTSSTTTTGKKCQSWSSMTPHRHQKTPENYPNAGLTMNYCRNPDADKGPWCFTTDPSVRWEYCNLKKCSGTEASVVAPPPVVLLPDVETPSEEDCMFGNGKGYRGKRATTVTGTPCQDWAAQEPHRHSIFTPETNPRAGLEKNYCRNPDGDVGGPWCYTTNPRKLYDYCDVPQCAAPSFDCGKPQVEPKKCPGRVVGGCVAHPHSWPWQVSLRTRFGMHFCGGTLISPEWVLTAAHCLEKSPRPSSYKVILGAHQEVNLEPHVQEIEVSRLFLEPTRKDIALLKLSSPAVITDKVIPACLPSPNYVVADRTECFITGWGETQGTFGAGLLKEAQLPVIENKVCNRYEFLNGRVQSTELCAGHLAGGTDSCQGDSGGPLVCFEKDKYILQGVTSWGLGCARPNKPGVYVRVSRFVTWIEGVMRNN
Description: (§1) The fibrinolysis enhancing activity of SMTP-0 (50 μM, 100 μM and 200 μM) obtained in Example 2 was evaluated as follows, as the activity for promoting the plasminogen activation by urokinase catalysis.
(§2) A 30 mM solution of SMTP (DMSO solution) was diluted with TBS/T (50 mM Tris-HCl, 100 mM NaCl and 0.01% Tween80, pH 7.4) to prepare a 1.5 mM solution (in 5% DMSO·TBS/T). This solution was diluted with 5% DMSO in TBS/T to prepare SMTP solutions at the concentrations mentioned above.
(2) Measurement of Plasminogen Activation
10 μl of an SMTP solution (10 μl) was mixed with 40 μl of a reaction liquid at a 1.25-fold concentration (0.0625 μM of plasminogen, 62.5 U/ml of urokinase, and 0.125 mM of VLK-pNA) in a 96-well microplate, and measurement was made by immediately monitoring the absorption of the hydrolysis of VLK-pNA at 405 nm over time with a microplate reader. The measurement was performed at 37° C. for 60 minutes at an interval of 2 minutes.

plasminogen [2] = molecular target: T1, plasminogen; assay: Measurement of activity of plasminogen fragment production (Example 5); type: biochemical; conditions: 50 μM, 100 μM and 200 μM; 60 minutes at 37° C., SDS polyacrylamide gel electrophoresis
Description: as §1, §2
(1) Measurement of Activity of Plasminogen Fragment Production
An SMTP solution (60 μl) was mixed with 240 μl of a reaction liquid at a 1.25-fold concentration (not containing VLK-pNA (Val-Leu-Lys-p-nitroanilide)), and the mixture was allowed to react for 60 minutes at 37° C. Then, 75 μl of 50% trichloroacetic acid (TCA) was added to terminate the reaction, and the mixture was left to stand in ice for 60 minutes. TCA-insoluble materials were precipitated by centrifugation, and the precipitate was washed two times with acetone. The obtained precipitate was dried, and then dissolved with 11 μl of added SDS sample buffer (0.125 M Tris-Cl, pH 6.8, 4% SDS, 20% glycerol and 0.02% bromophenol blue). 10 μl of the solution was used to perform SDS polyacrylamide gel electrophoresis (10% gel).

## CC(C)=CCC/C(C)=C/CC[C@]1(C)Oc2c(c(O)cc3c2CNC3=O)C[C@@H]1O [SMTP-0]
Plasminogen [1]
  action of enhancing the plasminogen activation: did not indicate any action
Plasminogen [2]
  action on the generation of plasminogen fragments having the angiogenesis inhibitory activity: did not exhibit any action
